Measured values from patent publication US9833486B2, “Compositions comprising selenium and use of same for the treatment and prevention of disease or conditions associated with mitochondrial dysfunction” (ALLTECH, INC., priority 2013, dated 2017).
Values joined by “and” are separate entries in the source; they are usually repeats but may differ in a detail not shown here. Equal values may be shown once. “Also recorded” adds a separate entry of the source. *1 amine or outer side, *2 acyl side, *3 side chain or, on linkers, in order; H or OH if unused. Where a SMILES comes first, the peptide text is derived from it. Bridges are numbered along the chain shown (N, C = ends). Roman numbers before positions name the chains, in order. [ ]: non-standard residue; d: D form. γGlu = O=C(O)[C@H](CCC(=O)[*:2])N[*:1]; Sec = N[C@@H](C[SeH])C(=O)O

Assays:
[1] = Oxygen radical absorbance capacity (ORAC) antioxidant assay; details: Trolox Equivalents; singly or in combination
Protocol: Briefly, samples of selenium containing compounds (e.g., identified in Example 1) were analyzed using the Trolox assay kit, according to the manufacturer's instructions. Compounds were tested singly or in combination (at concentrations ranging from 0.05 to 5 μM) to examine for potential synergies, antagonisms or purely additive effects.

mitochondria = experiment: Mitochondrial respiration by oxytherm (Clark-type electrode); format: biochemical, rat; details: 60 μg mitochondrial protein, 500 ppb, 30 minutes
Protocol: The bioactivities of selenium containing peptide LVSe-MR (C22H44N7O5Se) (#6) and methylselenoadenosine (C11H15N5O3Se) (#9) were analyzed utilizing oxytherm (Clark-type electrode) (See, e.g., Chance and Williams, J Biol Chem, 1955, 217, 383-393; Sullivan et al., J. Bioenerg. Biomembr. 36, 353-356.). Oxytherm analysis allows the determination of oxygen uptake or evolution measurements across a broad range of applications including mitochondrial and cellular respiration. For this experiment, 60 μg mitochondrial protein was co-incubated with either compound LVSe-MR (C22H44N7O5Se) or methylselenoadenosine (500 ppb) or their corresponding equivalent concentrations of respective controls (LVMR and methylthioadenosine, respectively) for 30 minutes prior to injection into the oxytherm chamber. Mitochondrial activity (measured and presented as the rate of mitochondrial respiration observed as % change in nmols O2/min/mg of mitochondrial protein) was measured in the presence of each compound.

[2] = system: pyruvate dehydrogenase complex (PDHC); experiment: PDHC enzyme activity in isolated cortical mitochondria; format: biochemical, rat
Protocol: (§1) In order to measure pyruvate dehydrogenase complex (PDHC) activity as well as mitochondrial Complex I activity, cortical mitochondria were isolated from adult SD rats using a ficoll gradient method. Methylselenoadenosine was tested at four concentration ranges (0, 50, 500 and 1000 PPB). All assays were done in triplicate with co-incubation of the individual compounds with mitochondria (60 μg mitochondrial protein/well) in 100 μl assay system using standard techniques in a 96-well fluorescence plate reader.

mitochondrial Complex I = experiment: Mitochondrial Complex I activity in isolated cortical mitochondria; format: biochemical, rat; details: 0, 50, 500, 1000 PPB
Protocol: as §1

Complex IV = Complex IV enzyme activity in isolated cortical mitochondria; format: biochemical, rat; details: 0, 50, 500, 1000 PPB
[3] = system: rat brain purified mitochondria; experiment: Mitochondrial bioenergetics, oxygen consumption rates (Seahorse flux analyzer); format: biochemical; set-up: key to Trend of effect on mitochondrial bioenergetics: 1: Positive Trend; 2: Positive/Negative trend; 3: Negative Trend; 4: No Change; details: for Effect on mitochondrial activity / bioenergetics profile (in words) / STATE III % change / STATE V % change / STATE Vsucc % change: Seahorse; for Effect on mitochondrial activity / bioenergetics profile (in words) / STATE V (State VFCCP, complex I dependent maximum respiratory capacity) / STATE Vsucc (complex II dependent maximum respiratory capacity) / STATE III (OCR, ATP synthesis) / STATE III % change / STATE V % change / STATE Vsucc % change: 500 ppb; for Trend of effect on mitochondrial bioenergetics: Table 7; for STATE V (State VFCCP, complex I dependent maximum respiratory capacity) / STATE Vsucc (complex II dependent maximum respiratory capacity) / STATE III (OCR, ATP synthesis): rat brain purified mitochondria 5 μg/well; for STATE V (State VFCCP, complex I dependent maximum respiratory capacity): CTRL 182.1; for STATE Vsucc (complex II dependent maximum respiratory capacity): CTRL 350.1; for STATE III (OCR, ATP synthesis): CTRL 432.6; for STATE III % change / STATE V % change / STATE Vsucc % change: vs control
Protocol: Mitochondria isolated from rat brain were chosen for this purpose for a number of reasons, including a) the ease with which mitochondria can be isolated from soft tissue, such as brain and b) the fact that brain tissue has a high demand for glucose and oxygen.
Experiments were conducted as follows: a variety of concentrations of selenium containing compounds were tested ranging from low (50 ppb), mid (500 ppb) and high (1 ppm). […] Adult rat brain ficoll purified mitochondria were isolated and incubated with the individual selenium containing compounds for 30 minutes at 37 C prior to being loaded into a Seahorse Biosciences flux analyzer in triplicate. OCR (Oxygen Consumption Rates) parameters were measured in three respiratory states including ATP synthesis (State III), Complex I dependent (NADH-driven) Maximum Respiratory Capacity (State VFCCP) and Complex II (FADH-driven) dependent Maximum Respiratory Capacity (State Vsucc). Sea Horse assay was performed as described (See, e.g., Sauerbeck et al., J Neurosci Methods. 2011 May 15; 198(1): 36-43; Seahorse XF, Seahorse Bioscience Inc).

mice = experiment: Expression of oxidative phosphorylation (OXPHOS) molecules in liver; format: in vivo, mouse
Protocol: Utilizing the animal model described in Example 2, experiments were conducted to analyze the expression of molecules that regulate oxidative phosphorylation (OXPHOS) in the liver of subjects administered a composition comprising selenium.

For C[Se]CC[C@H](N)C(=O)O [#4, L-Selenomethionine], which “TE Value” [1] is on record?
The value was 1.228 TE.

What does the source list for Methylselenoadenosine [#9]?
State III increase compared to control (mitochondria): 29.9%; State VFCCP increase compared to control (mitochondria): 17.3%; State Vsucc increase compared to control (mitochondria): 15.3%; PDHC activity (in words) ([2]; 0, 50, 500, 1000 PPB): increased; enhanced PDHC enzyme activity ([2]; 0-1000 PPB, depending upon the concentration, p<0.05 at 1000 PPB): 30-57%; TE Value [1]: 0.722 TE; Complex I activity (in words) (mitochondrial Complex I): increased; Complex IV enzyme activity (in words) (Complex IV): No changes; Effect on mitochondrial activity / bioenergetics profile (in words) [3]: positive increases in all three states of respiration; also recorded: remarkably increase mitochondrial bioenergetics profiles; Trend of effect on mitochondrial bioenergetics [3]: #9^1; STATE V (State VFCCP, complex I dependent maximum respiratory capacity) [3]: 210.3^1; STATE Vsucc (complex II dependent maximum respiratory capacity) [3]: 437.1^1; STATE III (OCR, ATP synthesis) [3]: 507.8^1; STATE III % change [3]: 17.3% and 17.3^1%; STATE V % change [3]: 15.6% and 15.6^1%; STATE Vsucc % change [3]: 25% and 24.9^1%

For N[C@@H](CCC(=O)O)C(=O)N[C@@H](CS)C(=O)O [#30, Glutamylcysteine, reference compound] (H-Glu-Cys-OH), which “Trend of effect on mitochondrial bioenergetics” value [3] is on record?
The value was “#30^2”.

What about the “STATE V (State VFCCP, complex I dependent maximum respiratory capacity)” value [3] of the same compound?
The value was 153.8.

And the “STATE Vsucc (complex II dependent maximum respiratory capacity)” value [3]?
Its value is 305.4.

And the “STATE III (OCR, ATP synthesis)” value [3]?
Its value is 423.2.

What about the “STATE III % change” value [3] of the same compound?
Its value is −2.3%.

And the “STATE V % change” value [3]?
The value was −15.5%.

And the “STATE Vsucc % change” value [3]?
Its value is −12.7%.

What does the source list for Glutamylselenocysteine dimer [#10]?
Effect on mitochondrial activity / bioenergetics profile (in words) [3]: negative effect; Trend of effect on mitochondrial bioenergetics [3]: #10^3; decreased ATP synthesis (State III) ([3]; decrease vs control): ~19%; STATE V (State VFCCP, complex I dependent maximum respiratory capacity) [3]: 112.7; STATE Vsucc (complex II dependent maximum respiratory capacity) [3]: 254.4; STATE III (OCR, ATP synthesis) [3]: 352.1; STATE III % change [3]: −18.7%; STATE V % change [3]: −38.1%; STATE Vsucc % change [3]: −27.3%

Which results are given for N[C@@H](CCC(=O)N[C@@H](C[Se][Se]C[C@H](NC(=O)CC[C@H](N)C(=O)O)C(=O)NCC(=O)O)C(=O)NCC(=O)O)C(=O)O [#8, Selenoglutathione dimer] (I: γGlu-[Sec]-Gly-OH / II: γGlu-[Sec]-Gly-OH; diselenide I:1-II:1)?
Trend of effect on mitochondrial bioenergetics [3]: #8^4; STATE V (State VFCCP, complex I dependent maximum respiratory capacity) [3]: 192.3; STATE Vsucc (complex II dependent maximum respiratory capacity) [3]: 371.0; STATE III (OCR, ATP synthesis) [3]: 424.0; STATE III % change [3]: −2.1%; STATE V % change [3]: 5.7%; STATE Vsucc % change [3]: 6.0%

For C[Se]CC[C@H](N)C(=O)O [selenomethionine], which “expression of ATP synthase” value (mice) is on record?
Its value is “significant increase”.

What about the “expression of ATPase inhibitory factor 1” value (mice) of the same compound?
The value was “significantly reduced”.

What about the “expression of ATPase, H+ transporting lysosomal, V1 subunit H” value (mice) of the same compound?
The value was “significantly reduced”.

And the “expression of ATPase, H+ transporting, V1 subunit A” value (mice)?
Its value is “significantly reduced”.

What about the “expression of cytochrome c oxidase, subunit Va” value (mice) of the same compound?
The value was “significant increase”.

What about the “regulation of liver specific mitochondrial activity, compared with selenium enriched yeast” value (mice) of the same compound?
The value was “significantly less effective”.
